Reference: patent US7947741B2, “Use and administration of bacterial efflux pump inhibitors” (Mpex Pharmaceuticals, Inc., priority 2004, dated 2011)
Where two headings read alike, the source gives them in different places.

Experiments:
PAM1723 cells = experiment: EtBr uptake (proton gradient disruption); type: cell-based, Pseudomonas aeruginosa; details: CCCP 50 μg/ml for 15 minutes, pentamidine 80 μg/ml
Protocol: A proton gradient is necessary for efflux pump activity. Accordingly, compounds that are capable of proton gradient disruption will appear as efflux inhibitors in accumulation assays. This possibility was tested for pentamidine. EtBr is a substrate of the MexAB-OprM efflux pump from P. aeruginosa as evident from the differential rates of its uptake in PAM 1723 and PAM 1626, MexAB-OprM overexpressing or lacking strains, respectively. CCCP is a well-known protonophore, which rapidly dissipates the proton gradient.

[1] = test system: P. aeruginosa PAM1032 (MexAB-OprM); experiment: microbe, parasite or virus in culture; type: cell-based, Pseudomonas aeruginosa; details: PAM1032
Source text: (§1) In addition to increased efflux, resistance to fluoroquinolones may be due to target mutations (gyrase and topoisimerase IV) or due to combination of these two resistance mechanisms in a single bacterial cell.

[2] = test system: P. aeruginosa PAM1482 (MexCD-OprJ; gyrA (Asp87Tyr)); experiment: microbe, parasite or virus in culture; type: cell-based, Pseudomonas aeruginosa; details: PAM1482
Source text: as §1

[3] = test system: P. aeruginosa PAM1548 (pump status none; gyrA (Thr83Ile)); experiment: microbe, parasite or virus in culture; type: cell-based, Pseudomonas aeruginosa; details: PAM1548
Source text: as §1

[4] = test system: P. aeruginosa PAM1020 (pump status none; target mutation none); experiment: microbe, parasite or virus in culture; type: cell-based, Pseudomonas aeruginosa; details: PAM1020
Source text: as §1

[5] = test system: P. aeruginosa PAM1034 (MexEF-OprN); experiment: microbe, parasite or virus in culture; type: cell-based, Pseudomonas aeruginosa; details: PAM1034
Source text: as §1

[6] = test system: P. aeruginosa PAM1033 (MexCD-OprJ); experiment: microbe, parasite or virus in culture; type: cell-based, Pseudomonas aeruginosa; details: PAM1033
Source text: as §1

[7] = test system: P. aeruginosa PAM1569 (MexCD-OprJ; gyrA (Thr83Ile)); experiment: microbe, parasite or virus in culture; type: cell-based, Pseudomonas aeruginosa; details: PAM1569
Source text: as §1

[8] = test system: P. aeruginosa PAM1491 (MexEF-OprN; gyrA (Asp87Tyr)); experiment: microbe, parasite or virus in culture; type: cell-based, Pseudomonas aeruginosa; details: PAM1491
Source text: as §1

[9] = isethionate salt; cited from earlier work
Pneumocystis carini = details: cited from earlier work
[10] = for AUC (0-4)/AUC (0-168) / AUC (0-8)/AUC (0-168) / AUC (0-24)/AUC (0-168) / Ke (β): CF sputum, high dose, Mean; for Ke (β): β phase
[11] = molecular target: MexAB-OprM-mediated efflux of Leu-Nap, PAM1723 cells (Pseudomonas aeruginosa, UniProt P52002); experiment: Leu-Nap accumulation assay; type: cell-based
MexAB-OprM-mediated efflux of Leu-Nap, PAM1723 cells, sequence (Q51487 18-485): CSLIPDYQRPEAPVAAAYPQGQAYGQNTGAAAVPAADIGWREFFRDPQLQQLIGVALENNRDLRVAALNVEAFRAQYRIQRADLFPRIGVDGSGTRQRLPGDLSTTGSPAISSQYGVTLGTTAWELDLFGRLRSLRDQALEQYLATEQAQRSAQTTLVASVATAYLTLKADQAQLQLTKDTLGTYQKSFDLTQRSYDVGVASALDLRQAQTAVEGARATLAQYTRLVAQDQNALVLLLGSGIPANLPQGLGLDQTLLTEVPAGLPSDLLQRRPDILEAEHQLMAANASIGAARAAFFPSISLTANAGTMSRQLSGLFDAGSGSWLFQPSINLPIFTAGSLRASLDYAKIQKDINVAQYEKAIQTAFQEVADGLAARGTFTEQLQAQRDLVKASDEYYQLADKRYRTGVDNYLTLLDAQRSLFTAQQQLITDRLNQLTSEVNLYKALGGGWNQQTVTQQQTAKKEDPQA
MexAB-OprM-mediated efflux of Leu-Nap, PAM1723 cells, sequence (P52002 whole entry): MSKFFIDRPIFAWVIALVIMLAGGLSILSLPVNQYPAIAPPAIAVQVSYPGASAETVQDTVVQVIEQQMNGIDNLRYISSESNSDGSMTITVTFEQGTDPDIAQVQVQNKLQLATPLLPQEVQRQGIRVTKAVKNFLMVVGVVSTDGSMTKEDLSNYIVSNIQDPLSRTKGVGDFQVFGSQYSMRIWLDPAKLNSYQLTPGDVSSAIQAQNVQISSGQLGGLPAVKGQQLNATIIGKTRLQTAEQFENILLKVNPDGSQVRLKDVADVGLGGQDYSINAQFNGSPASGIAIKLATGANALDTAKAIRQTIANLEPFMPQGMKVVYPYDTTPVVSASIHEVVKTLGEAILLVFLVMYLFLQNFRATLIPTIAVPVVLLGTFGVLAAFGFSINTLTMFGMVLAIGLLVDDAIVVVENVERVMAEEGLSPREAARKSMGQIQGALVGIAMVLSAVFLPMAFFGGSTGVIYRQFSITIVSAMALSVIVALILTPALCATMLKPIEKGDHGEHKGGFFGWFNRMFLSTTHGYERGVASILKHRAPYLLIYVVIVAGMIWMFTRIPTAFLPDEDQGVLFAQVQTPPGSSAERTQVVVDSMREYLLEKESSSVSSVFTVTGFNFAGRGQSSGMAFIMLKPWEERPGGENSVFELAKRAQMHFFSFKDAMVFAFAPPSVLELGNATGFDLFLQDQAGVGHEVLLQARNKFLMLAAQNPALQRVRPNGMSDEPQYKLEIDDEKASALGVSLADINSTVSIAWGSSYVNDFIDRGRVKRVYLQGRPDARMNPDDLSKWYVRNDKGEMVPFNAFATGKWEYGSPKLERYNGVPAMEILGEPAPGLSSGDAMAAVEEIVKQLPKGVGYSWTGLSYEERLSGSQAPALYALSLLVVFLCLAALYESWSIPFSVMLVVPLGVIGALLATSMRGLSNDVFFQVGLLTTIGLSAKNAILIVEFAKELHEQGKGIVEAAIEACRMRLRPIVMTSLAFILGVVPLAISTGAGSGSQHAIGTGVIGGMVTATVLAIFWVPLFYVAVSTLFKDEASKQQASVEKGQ
MexAB-OprM-mediated efflux of Leu-Nap, PAM1723 cells, sequence (P52477 24-383, further chain): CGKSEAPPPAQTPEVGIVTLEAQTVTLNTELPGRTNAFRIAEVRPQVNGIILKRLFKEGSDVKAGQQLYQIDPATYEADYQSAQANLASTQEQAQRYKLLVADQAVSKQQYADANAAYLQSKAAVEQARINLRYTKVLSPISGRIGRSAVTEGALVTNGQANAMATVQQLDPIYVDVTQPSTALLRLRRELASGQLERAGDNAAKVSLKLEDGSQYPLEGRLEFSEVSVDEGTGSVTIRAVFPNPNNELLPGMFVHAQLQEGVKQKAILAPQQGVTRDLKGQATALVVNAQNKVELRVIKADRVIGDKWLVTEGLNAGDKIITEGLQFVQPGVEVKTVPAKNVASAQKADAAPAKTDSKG

Structure (SMILES): N=C(N)c1ccc(OCCCCCOc2ccc(C(=N)N)cc2)cc1 [Pentamidine, pentamidine]
- EtBr uptake (PAM1723 cells): did not result in increased EtBr uptake
- Ciprofloxacin MIC w/pentamidine at 20 μg/ml [1]: 0.06 µg/mL
- Levofloxacin MIC w/pentamidine at 20 μg/ml [1]: 0.125 µg/mL
- Ciprofloxacin MIC w/pentamidine at 20 μg/ml [2]: 2 µg/mL
- Levofloxacin MIC w/pentamidine at 20 μg/ml [2]: 1 µg/mL
- Ciprofloxacin MIC w/pentamidine at 20 μg/ml [3]: 0.5 µg/mL
- Levofloxacin MIC w/pentamidine at 20 μg/ml [3]: 0.25 µg/mL
- Ciprofloxacin MIC w/pentamidine at 20 μg/ml [4]: 0.015 µg/mL
- Levofloxacin MIC w/pentamidine at 20 μg/ml [4]: 0.03 µg/mL
- Ciprofloxacin MIC w/pentamidine at 20 μg/ml [5]: 0.06 µg/mL
- Levofloxacin MIC w/pentamidine at 20 μg/ml [5]: 0.125 µg/mL
- Ciprofloxacin MIC w/pentamidine at 20 μg/ml [6]: 0.25 µg/mL
- Levofloxacin MIC w/pentamidine at 20 μg/ml [6]: 0.25 µg/mL
- Ciprofloxacin MIC w/pentamidine at 20 μg/ml [7]: 4 µg/mL
- Levofloxacin MIC w/pentamidine at 20 μg/ml [7]: 4 µg/mL
- Ciprofloxacin MIC w/pentamidine at 20 μg/ml [8]: 1 µg/mL
- Levofloxacin MIC w/pentamidine at 20 μg/ml [8]: 2 µg/mL
- solubility [9]: soluble in water and glycerin and insoluble in ether, acetone, and chloroform
- In vitro inhibitory activity (Pneumocystis carini): 0.3 µg/mL
- AUC (0-4)/AUC (0-168) ([10]; Aerogen Clinical): 46%
- AUC (0-8)/AUC (0-168) ([10]; Aerogen Clinical): 61%
- AUC (0-24)/AUC (0-168) ([10]; Aerogen Clinical): 77%
- Ke (β) ([10]; Aerogen Clinical): 0.070 h⁻¹
- AUC (0-4)/AUC (0-168) ([10]; Respirgard II): 30%
- AUC (0-8)/AUC (0-168) ([10]; Respirgard II): 41%
- AUC (0-24)/AUC (0-168) ([10]; Respirgard II): 66%
- Ke (β) ([10]; Respirgard II): 0.074 h⁻¹
- AUC (0 to 168) ([10]; human, in vivo): 57000 ng·h/mL
- AUC (0 to infinity) ([10]; human, in vivo): 57000 ng·h/mL
- AUC (0 to last non-BLQ) ([10]; human, in vivo): 56000 ng·h/mL
- Tmax (0 to 168) ([10]; human, in vivo): 2.3 h
- high-dose β-phase elimination half-life (sputum) ([10]; human, in vivo): between one and two days
- inhibitor concentration at which rate of Leu-Nap uptake in PAM1723 and PAM1626 is the same (complete inhibition of efflux) ([11]; Leu-Nap 100 μg/ml): 40 µg/mL
- mode of inhibition ([11]; dependence on Leu-Nap substrate concentration): uncompetitive inhibition
- pentamidine required for complete inhibition of the pump ([11]; external Leu-Nap 60 μg/ml, fluorescence change in 30 min): 80 µg/mL
- pentamidine required to completely inhibit MexAB-OprM-mediated efflux ([11]; external Leu-Nap 120 μg/ml, fluorescence change in 30 min): 20 µg/mL
